# Patent US20250250227A1, “AMINO LIPID COMPOUND, PREPARATION METHOD THEREFOR, COMPOSITION THEREOF AND USE THEREOF” (SHENZHEN SHENXIN BIOTECHNOLOGY CO., LTD., priority 2022, published 2025)
# Experiments:
# [1] = Preparation and characterisation of mRNA-encapsulating lipid nanoparticle (encapsulation efficiency, particle size); format: physicochemical; conditions: LNP encapsulating Fluc mRNA; Lipid:DSPC:CHO-HP:M-DMG-2000 48:10:40.5:1.5
# Outline: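 Fluc mRNA in sodium acetate buffer mixed with ethanolic amino lipid:DSPC:CHO-HP:M-DMG-2000 (48:10:40.5:1.5 molar) by microfluidics, mRNA:lipid mass ratio 1:10, then dialysed 2 h against Tris-8% sucrose and 0.22 μm filtered. Final mRNA 0.2 g/L; particle size and encapsulation efficiency measured.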
# Female BALB/c mice [2] = assay: Performance evaluation of delivery to lymph nodes of Fluc mRNA lipid nanoparticle (IVIS); format: in vivo; conditions: Fluc mRNA LNP
# Method: (§1) Animal preparation: Female BALB/c mice of 6-8 weeks old were selected and raised in an SPF grade breeding room. Animal testing was conducted in strict accordance with the guidelines of national health institutions and animal ethics requirements.
# In vivo Delivery: prior to injection of the test LNP formulations, the LNP formulations were gently and repeatedly inverted to thoroughly mix the formulation samples. A corresponding amount of the formulation samples were aspirated with a 1 ml insulin syringe, and the LNP formulations were injected by tail vein injection (IV), with 3 mice per formulation. Each mouse was injected with 75 μL the luciferase mRNA (Fluc mRNA)-encapsulating lipid nanoparticle formulation prepared in Experimental Example 1.
# 6 hours after injection of LNP formulations, mice were injected with 200 μL D-Luciferin luciferase developing substrate (Catalog No. 122799; Manufacturer: Perkin Elmer). After the substrate was injected, the mice were anesthetized with isoflurane inhalation, and the injection time of luciferase developing substrate was recorded.
# The intensity of fluorescence expression induced by the lipid nanoparticle encapsulating luciferase mRNA (Fluc mRNA) with a representative amino lipid compound is shown in Table 6, with SM-102 as a control.
# Female BALB/c mice [3] = assay: IFN-γ Elispot cellular immunity test, spleen lymphocytes of mice immunized with IN002.5.1 mRNA LNP; format: in vivo; conditions: 50 μL IM, spleen on 7th day after immunization, FIG. 2-4
# Method: An IN002.5.1 mRNA-encapsulating lipid nanoparticle formulation was prepared according to the method as described in Experimental Example 1, with replacing the luciferase mRNA (Fluc mRNA) with IN002.5.1 mRNA, with a concentration of IN002.5.1 mRNA of 0.2 g/L, a mass ratio of IN002.5.1 mRNA to Lipid of 1:10, a particle size of 80-130 nm, and an encapsulation efficiency of 90% or higher.
# The sequence of IN002.5.1 mRNA is one obtained by replacing all uracil (u) in SEQ ID NO. 1 with N1-methylpseudouridine. Of note is that the t (thymine) in the RNA sequence, SEQ ID NO. 1, in the Sequence Listing is actually u (uracil), according to the WIPO Standard ST. 26 for nucleotide or amino acid sequence listing.
# as §1
# Immunization of mice: Prior to injection of the test LNP formulations, the LNP formulations were gently and repeatedly inverted to thoroughly mix the formulation samples. A corresponding amount of the formulation samples were aspirated with a 1 ml insulin syringe, and the LNP formulations were injected by intramuscular injection (IM) […], with 8 mice per formulation. Each mouse was injected with 50 μL of the IN002.5.1 mRNA encapsulating lipid nanoparticle formulation.
# Spleen acquisition: On the 7th day after immunization, 3 to 4 mice from each LNP immunization group were selected and euthanized, and their spleens were acquired in a super clean bench.
# Isolation of lymphocytes: The spleens of mice were taken out in a super clean bench. 7 mL of mouse lymphocyte separation solution was added to a 6-well cell culture plate. Mouse spleen cells were ground with a syringe piston, and the suspension of the spleen cells was filtered through a cell screen and immediately transferred to a 15 mL centrifuge tube. […] RPMI 1640 medium was slowly added with keeping the liquid interface distinct. After centrifugation at 800 g with a horizontal rotor at room temperature for 30 minutes, a clear stratification can be visible. The lymphocyte layer was aspirated, then added with 10 mL RPMI 1640 medium, and inverted for washing. The cells were collected by centrifugation at 250 g for 10 min at room temperature, and the red blood cells were lysed. After completing lysis of red blood cells, the supernatant was poured, and the cells were resuspended in culture medium and counted.
# Addition of stimulant and culture of lymphocyte: RPMI-1640 medium containing 10% fetal bovine serum was used to activate the pre-coated plate. After standing at room temperature for at least 30 min, the medium was removed, and a cell suspension at adjusted concentration was added ([…]). The medium used to resuspend the cells was used as a background negative control. 10 μL positive stimulant working solution (PMA+Ionomycin (dissolved in DPBS) was added to a positive control well; […] medium used to resuspend the cells was added to a negative control well; 10 µL/well of a peptide library diluted with RPMI 1640 was added to experimental wells. After all samples and the stimulant were added, the plate was covered, incubated in an incubator with 5% CO2 at 37° C. for 16-24 h.
# Elispot detection after culture: The cells and the culture medium in the wells were dumped, and the wells were lysed with 200 μL/well of ice-cold deionized water at 4° C. for 10 min. The liquid in the wells were shaken out, and the wells were washed five times with PBS buffer. The wells were incubated with 100 μL/well of 1 μg/ml detection antibody for 2 h at room temperature; and after washing the plate 5 times with PBS, the wells were incubated with 100 μL/well of 1000-fold diluted enzyme labeled avidin (Streptavidin-HRP) for 1 h at room temperature. […]
# Female BALB/c mice [4] = assay: Performance evaluation of in vivo delivery of Fluc mRNA lipid nanoparticle (IVIS, body and organs); conditions: Fluc mRNA LNP
# Outline: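 Female BALB/c mice, 6-8 weeks, received 75 μL Fluc mRNA-LNP by tail-vein injection, 3 mice per formulation. At 6 h, 200 μL D-luciferin was injected, mice were anesthetized with isoflurane, and IVIS bioluminescence was imaged in body and organs.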
smiles,measurement,setting,value
CCCCCCC(CCCCCC)OC(=O)CCCCCCCCC(CCCCCCCCC(=O)OC(CCCCCC)CCCCCC)OC(=O)N(CCCN(C)C)CC(=O)OCC [Compound 268],Encapsulation efficiency,[1],92.22%
same,Expression intensity (lymph nodes),"Female BALB/c mice [2]; 75 μL IV, 6 hours after injection, IVIS, lymph nodes",1.78E+06
same,Delivery effect on lymph nodes compared to SM102,"Female BALB/c mice [2]; IV, statement on Table 6",better delivery effect on lymph nodes
same,Cellular immunity effect (IFN-γ Elispot) compared to ALC0315,Female BALB/c mice [3],better cellular immunity effect
same,Liver (fluorescence expression intensity),"Female BALB/c mice [4]; 75 μL IV, 6 hours after injection, IVIS, liver",2.11E+07
same,Spleen (fluorescence expression intensity),"Female BALB/c mice [4]; 75 μL IV, 6 hours after injection, IVIS, spleen",8.01E+06
same,Total flux (fluorescence expression intensity),"Female BALB/c mice [4]; 75 μL tail vein injection (IV), 6 hours after injection, IVIS",1.23E+08
same,(Spleen/Total Flux) * 100%,"Female BALB/c mice [4]; IV, 6 hours after injection",6.51%
same,Multiple of spleen delivery/total delivery to amino lipid compound 118,"Female BALB/c mice [4]; IV, relative to amino lipid compound 118",19.15
